{"source": "paper PMC9490060", "about": "“Synthesis and evaluation of anticancer activity of quillaic acid derivatives: A cell cycle arrest and apoptosis inducer through NF-κB and MAPK pathways” (Frontiers in Chemistry, 2022)", "key": {"[1]": {"test_system": "HCT116 (human colorectal cancer cell line)", "experiment": "MTT anti-proliferative assay, HCT116", "type": "cell-based", "conditions": "means ± SD, n = 3", "outline": "(§1)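 Cells seeded at 1 × 10^4–1.2 × 10^4 per well were allowed to adhere 24 h, then exposed 48 h at 37 °C, 5% CO2 to compound at 1.25, 2.5, 5 and 10 μM (DMSO ≤0.1%). MCF-7 and HepG2 were grown in DMEM, HCT116 and BEL7402 in RPMI 1640, each with 10% FBS. MTT (final 2 mg/ml) was added for 4 h; formazan was dissolved in DMSO and read at 492 nm.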"}, "[2]": {"test_system": "HepG2 (human hepatocellular carcinoma cell line)", "experiment": "MTT anti-proliferative assay, HepG2", "type": "cell-based", "conditions": "means ± SD, n = 3", "outline": "as §1"}, "[3]": {"test_system": "MCF-7 (human breast cancer cell line)", "experiment": "MTT anti-proliferative assay, MCF-7", "type": "cell-based", "conditions": "means ± SD, n = 3", "outline": "as §1"}, "HCT116 cells [4]": {"test_system": "HCT116 cells", "experiment": "Colony formation assay", "type": "cell-based, human", "conditions": "HCT116, 2.5, 5, 10 μM, 7 days", "method": "The colony-forming cell assay was used to determine the ability of cells to proliferate and differentiate into colonies and thereby to investigate the anti-proliferative efficacy of compound E ([Lei et al., 2015]).\nFIGURE 3 Colony formation of HCT116 cells inhibited by compound E. (A) HCT116 cells were incubated with varying concentrations of E (0, 2.5, 5, 10 μM) and stained with crystal violet. (B) The micrographic differences between the colonies. Images were taken of stained single colonies observed under a microscope.\nExponentially growing HCT116 cells (600 cells per well) were plated on 6-well plates with Roswell Park Memorial Institute (RPMI) 1,640 medium containing 10% fetal bovine serum (FBS). After incubating for 12 h, replace with fresh medium. Then, the cells were treated with different concentrations of compound E (2.5, 5 and 10 μM) dissolved in DMSO. Some cells only use DMSO as a negative control. Then incubate for another 7 days. Finally, the cells were fixed with 95% ethanol for 25 min, stained with 0.1% crystal violet for 15 min at room temperature, and then washed with PBS until the […] were completely removed."}, "HCT116 cells [5]": {"test_system": "HCT116 cells", "experiment": "Cell cycle analysis by flow cytometry", "type": "cell-based, human", "conditions": "HCT116, 30 μM, 24 h; control 53.9", "method": "Inoculate HCT116 cells in a 6-well plate (5.0 × 10^5 cells per well) and incubate at 37°C for 24 h. The exponentially growing cells were then incubated with compound E at 10 and 30 μM. After 24 h, untreated cells (control) or cells treated with compound E were centrifuged at 1,000 rpm for 15 min, and then fixed in 70% ethanol at […] for at least 24 h. The cells were then resuspended in phosphate buffered saline (PBS) containing 0.1 mg/ml RNase A and 5 mg/ml PI. The DNA content of cells used for cell cycle distribution analysis was measured by flow cytometry, and analyzed using FACSalibur flow cytometer and Cell Quest software (Becton-Dickinson, Franklin Lakes, NJ, United States)."}, "IκB": {"test_system": "IκB", "experiment": "Western blot, NF-κB signaling pathway: IκB", "type": "cell-based, human", "conditions": "HCT116, 2.5, 5 and 10 μM, 24 h", "from_the_text": "(§2) The NF-κB pathway plays an important role in a variety of cellular functions, including cell growth, apoptosis, and tumorigenesis ([Hwang et al., 2012]). Interfering with NF-κB signaling can inhibit tumor cell proliferation and metastasis ([Yenmis et al., 2021]). Therefore, NF-κB inhibitors are considered as potential anticancer drugs ([Wang et al., 2017]).\n(§3) FIGURE 8 Effect of compound E on NF-κB signaling pathway in HCT116 cells. Cells were pretreated with the various concentrations of compound E (2.5, 5 and 10 μM) for 24 h. The expression of phospho-NF-κB p65, NF-κB p65, phospho-IκB, IκB were analyzed by Western blot. ***p < 0.001, **p < 0.01, *p < 0.05 vs. control group. The error bars represent the mean ± SD for three independent experiments.\n(§4) HCT116 cells were cultured with different concentrations of compound E for 24 h. Then, the floating cells were collected and washed twice with ice-cold PBS. Add cold RIPA buffer. After the cells were lysed on ice for 20 min, the lysate was centrifuged at 12,000 rpm for 15 min at 4°C. The BCA method determines the protein concentration. Separated by SDS/PAGE electrophoresis and transferred to a nitrocellulose filter membrane for Western blot analysis. The membrane was blocked with PBS containing 5% skim milk at room temperature for 2 h. […] The protein is detected by electrochemiluminescence (Bio-Rad, CA, United State)."}, "NF-κB p65": {"test_system": "NF-κB p65", "experiment": "Western blot, NF-κB signaling pathway: NF-κB p65", "type": "cell-based, human", "conditions": "HCT116, 2.5, 5 and 10 μM, 24 h", "from_the_text": "as §2, §3, §4"}}}
{"smiles": "CC1(C)CC[C@]2(C(=O)OCCn3nnnc3-c3ccccc3)[C@H](O)C[C@]3(C)C(=CC[C@@H]4[C@@]5(C)CC[C@H](O)[C@@](C)(C=O)[C@@H]5CC[C@]43C)[C@@H]2C1", "note": "[Compound E, 2-(5-phenyl-1H-tetrazol-1-yl)ethyl (4aR,5R,6aS,6bR,8aR,9S,10S,12aR,12bR,14bS)-9-formyl-5,10-dihydroxy-2,2,6a,6b,9,12a-hexamethyl-1,3,4,5,6,6a,6b,7,8,8a,9,10,11,12,12a,12b,13,14b-octadecahydropicene-4a (2H)-carboxylate]", "values": [{"measurement": "IC50 values HCT116", "setting": "[1]; 48 h incubation", "value": "strong activity"}, {"measurement": "IC50", "setting": "[1]; Homo sapiens, HCT-116, 48 h incubation", "value": "2460 ± 440", "unit": "nM"}, {"measurement": "IC50 values HepG2", "setting": "[2]; 48 h incubation", "value": "strong activity"}, {"measurement": "IC50", "setting": "[2]; Homo sapiens, HepG2, 48 h incubation", "value": "8.89 ± 2.24", "unit": "µM"}, {"measurement": "IC50 values MCF-7", "setting": "[3]; 48 h incubation", "value": "strong activity"}, {"measurement": "IC50", "setting": "[3]; Homo sapiens, MCF7, 48 h incubation", "value": "7.59 ± 1.78", "unit": "µM"}, {"measurement": "colony formation (number and size of colonies)", "setting": "HCT116 cells [4]", "value": "significantly decreased the number and size of colonies in a concentration-dependent manner"}, {"measurement": "%G1", "setting": "HCT116 cells [5]", "value": 81.2, "unit": "%"}, {"measurement": "phosphorylation and degradation of IκB", "setting": "IκB", "value": "inhibited the phosphorylation and degradation of IκB"}, {"measurement": "effect on NF-κB p65", "setting": "NF-κB p65", "value": "no inhibitory effect"}]}
